According to patent publication US20240390902A1, “METHODS AND SYSTEMS FOR SORTING BIOLOGICAL PARTICLES” (Newomics Inc., priority 2017, published 2024):
Where “and” joins values, the source holds several entries; their conditions need not be identical. Equal entries are not always repeated. Where two headings read alike, the source gives them in different places.

How the values were obtained:
[1] = system: human mesenchymal stem cells (hMSCs)
Procedure: Senescent cell model and staining. hMSCs or mMSCs senescence was induced chemically using hydrogen peroxide or using X-ray radiation. The medium containing hydrogen peroxide (H2O2) was prepared by diluting 30% H2O2 solution (H1009, Sigma, USA) with MSCs culture medium to desired concentrations. For the H2O2 treatment experiments, the MSCs were cultured in the medium containing H2O2 at 37° C. for 3 hours. After that, the MSCs were washed with 1×DPBS 2 times and cultured in the fresh media for a variable number of days before analysis. For X-ray radiation treatment, MSCs were placed on a rotating table and exposed to 1 gray (Gy), 4 Gy, or 6 Gy radiation. After treatment, cells were cultured for a variable number of days before analysis. The senescent cells were identified by the senescence detection kit (K320, BioVision, USA), which targets senescence-associated β-galactosidase (SA-β-gal) activity, following the manufacturer's provided protocol. […] For the experiments using the mixture of basal and H2O2-treated hMSCs, the H2O2-treated hMSCs were stained with cell tracker (C34551, CellTracker™ orange CMRA Dye™ dye, ThermoFisher Scientific, USA), while basal hMSCs were stained with Hoechst for 10 minutes to differentiate two cell populations.
Cellular senescence induction of human MSCs. Hydrogen peroxide (H2O2) was used to induce cellular senescence of human MSCs. We tested three H2O2 concentrations: 100, 200, and 300 μM. Concentrated H2O2 (100×) was prepared and was added to hMSC culture media using a 1 to 100 dilution, after which, hMSCs were cultured in H2O2 contained medium in a 37° C. incubator for three hours. After H2O2 treatment, the H2O2 contained medium was withdrawn and the culture wells were washed with DPBS two times. Fresh culture medium was then added to cells for 1, 4, and 7 days post-culture. hMSCs were detached using Trypsin/EDTA, then labeled with a senescence detection kit in a 37° C. incubator overnight following the manufacturer's recommended protocol (K320, BioVision, USA). The senescence kit targets senescence-associated β-galactosidase (SA-β-gal) activity within cells. The SA-β gal^+ cells and total cells were counted to estimate the senescence cell ratio. […] For the experiment to mix basal hMSCs with H2O2 treated hMSCs, the basal hMSCs followed the same culture protocol, but without H2O2 treatment.

[2] = system: human mesenchymal stem cells (hMSCs); details: 300 μM H2O2, 3 hours (FIG. 19B)
Procedure: Cell culture and staining. Human mesenchymal stem cells (MSCs) were derived from a person and purchased from Lonza (Lonza, 0000471980). […] Cells were cultured in a humidified incubator (Symphony 5.3A CO2 incubator, VWR, USA) at 37° C. with 5% CO2. MSCs basal medium (PT-3238, Lonza) with MSCGM™ SingleQuots supplement kit (PT-4105, Lonza) was used for hMSC culture, and MesenCult™ Expansion kit (5513, [sequence] Technologies, Canada) was used for mMSC culture. Both media were supplemented with 1% penicillin-streptomycin (15140122, ThermoFisher Scientific, USA) to prevent cell contamination during culture. Basal MSCs were stained with either Hoechst (Hoechst 33342, H3570, ThermoFisher Scientific, USA) for 10 minutes or cell tracker (C2102, CellTracker™ green BODIPY™ dye, ThermoFisher Scientific, USA) for 15 minutes. In all cases, adhesive cells were detached using Trypsin/EDTA (CC3232, Lonza) at 37° C. for 10 minutes. The size of trypsinized cells was measured by the analytical tool provided in the Olympus cellSens Dimension software.

[3] = system: mouse mesenchymal stem cells (mMSCs)
Procedure: Mouse mesenchymal stem cells (MSCs) were purchased from Cyagen (Strain C57BL/6 Mouse Mesenchymal Stem Cells, MUBMX-01001, Cyagen, USA). Cells were cultured in a humidified incubator (Symphony 5.3A CO2 incubator, VWR, USA) at 37° C. with 5% CO2. MSCs basal medium (PT-3238, Lonza) with MSCGM™ SingleQuots supplement kit (PT-4105, Lonza) was used for hMSC culture, and MesenCult™ Expansion kit (5513, [sequence] Technologies, Canada) was used for mMSC culture. Both media were supplemented with 1% penicillin-streptomycin (15140122, ThermoFisher Scientific, USA) to prevent cell contamination during culture. Basal MSCs were stained with either Hoechst (Hoechst 33342, H3570, ThermoFisher Scientific, USA) for 10 minutes or cell tracker (C2102, CellTracker™ green BODIPY™ dye, ThermoFisher Scientific, USA) for 15 minutes. In all cases, adhesive cells were detached using Trypsin/EDTA (CC3232, Lonza) at 37° C. for 10 minutes. The size of trypsinized cells was measured by the analytical tool provided in the Olympus cellSens Dimension software.

[4] = system: mouse mesenchymal stem cells (mMSCs); details: 150 μM H2O2; each timepoint including 24 hours after treatment
Procedure: Cellular senescence induction of mouse MSCs. […] At each timepoint, mMSCs were labeled with a senescence detection kit in a 37° C. incubator overnight. The senescence cell ratio was calculated by dividing the SA-β gal^+ cells over the total number of cells counted.

[5] = system: human mesenchymal stem cells (hMSCs); experiment: Necrosis of human MSCs (apoptosis kit, annexin V-FITC / SYTOX green); details: for necrotic cell percentage of hMSCs: 300 μM H2O2 treated
[6] = 300 μM H2O2 treated hMSCs, cultured 7 days, stored at 4° C. another 2 days (FIG. 19B)
[7] = 150 μM H2O2 for three hours, after culturing for 1 day

Q: What does the source list for `OO` [H2O2, hydrogen peroxide]?
A: percentage of senescent hMSCs ([1]; 300 μM H2O2 for 3 hours, 1 day post-treatment): 9.9%; percentage of senescent hMSCs ([1]; 300 μM H2O2 for 3 hours, 3 days post-treatment): 16.5%; percentage of senescent hMSCs (senescence ratio) ([1]; 300 μM H2O2 for 3 hours, 7 days post-treatment): ~50% and 57.7%; percentage of senescent cells [1, 6]: 51.7%; size of hMSCs [2]: 29.4+/−3.2 μm; increase of size compared to basal mMSCs [3, 7]: 3.5 μm; size of mMSCs [3, 7]: 16.8+/−2.5 μm; purity of cells >15 μm ([3]; H2O2 (150 μM) treated mMSCs, sample input): 43.5%; senescence ratio of mMSCs versus cells without H2O2 treatment [4]: higher; percentage of necrotic cells [5, 6]: 37%; percentage of viable cells [5, 6]: 11.3%; necrotic cell percentage of hMSCs ([5]; before storage at 4° C.): 25%; necrotic cell percentage of hMSCs ([5]; stored at 4° C. refrigerator for 2 days): 56%
